Results published in US10906904B2, “ADO-resistant cysteamine analogs and uses thereof” (HORIZON ORPHAN LLC, priority 2015, dated 2021).
Where two headings read alike, the source gives them in different places.

Tests used:
[1] = test system: St-HdhQ^111/111 cells; test: Glutamate-induced neuronal excitotoxicity assay; format: cell-based; conditions: STHdhQ111, 6 mM L-glutamate 24 hours, % of effect of 100 μM cysteamine; for viability at 10 µM: read-out: HdhQ^111/111 cell % survival (mean ± STD) Test Conc. 10 μM; for viability at 100 µM: read-out: HdhQ^111/111 cell % survival (mean ± STD) Test Conc. 100 μM
Experimental: The ability of test compounds to inhibit glutamate-induced excitotoxicity (neuroprotection) in St-HdhQ^111/111 cells was determined by incubating compounds with cells for 60 min at 33° C., 95% (v:v) air/5% (v:v) CO2 in Dulbecco's Modified Eagle Media. Following this, excitotoxicity was induced by the addition of 6 mM L-glutamate for 24 hours. Cell viability was assessed by measuring ATP levels using a luminescent-based CellTitre Glo assay (Promega). Compound neuroprotection (% cell survival) was expressed as a % of the effect recorded with 100 μM cysteamine (denoted as 100% cell survival).

[2] = biological target: T1, human recombinant ADO (Homo sapiens, UniProt Q96SZ5); format: in vitro ADME
T1 sequence (Q96SZ5 1-270): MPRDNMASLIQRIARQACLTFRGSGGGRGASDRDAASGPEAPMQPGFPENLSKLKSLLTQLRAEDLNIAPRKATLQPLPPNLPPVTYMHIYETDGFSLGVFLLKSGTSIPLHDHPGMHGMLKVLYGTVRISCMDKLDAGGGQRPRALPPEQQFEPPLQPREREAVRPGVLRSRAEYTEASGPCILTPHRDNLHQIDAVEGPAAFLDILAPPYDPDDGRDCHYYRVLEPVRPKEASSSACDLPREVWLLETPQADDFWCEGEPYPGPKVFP
Experimental: The rate of ADO metabolism was determined by incubating 15 mM test compound with 60 μg/ml human recombinant ADO and 20 nM MitoXpress® O2-sensitive fluorescent probe (Luxcel) at 37° C. in assay buffer/salt in a sealed assay chamber. The initial rate of fluorescence (excitation λ380 nm and emission λ650 nm) increase was used to measure ADO-dependent oxygen depletion activity. The ability of ADO to metabolize compounds and concomitantly consume oxygen was expressed relative to that of 15 mM cysteamine.

[3] = Cystine reactivity assay; parameters: Cystine Reactivity: unit not given here; conditions: for Cystine Reactivity Assay (30° C.) (%) Mean Value: percentage of 3 mM cysteamine
Experimental: Cystine reactivity was assessed by incubating 3 mM test compound with 100 nM BODIPY® FL L-Cystine (Life Tech.) at 30° C., pH 7.4 in phosphate buffer. […] Compound cystine reactivity was expressed as a percentage of that of 3 mM cysteamine.
Under resting conditions, the inherent fluorescence of BODIPY® FL L-cystine was very low due to the spatial proximity of the two BODIPY molecules causing quenching. Under chemical reaction (disruption of the S—S bond), the spatial distance was increased, the quenching lost, and measured fluorescence increased. Time (minutes) vs. fluorescence (relative fluorescence units—RFU) was plotted and linear regression analysis was performed to generate a slope value corresponding to the reaction rate in RFU/min and an R2 value.

[4] = test system: cystinotic human fibroblasts; test: Cystine depletion assay; format: cell-based; conditions: for Emax: Homo sapiens, Fibroblast, 1 h, relative to cystine depletion by cysteamine (100%) at a similar concentration
Experimental: The ability of test compounds to deplete cystine from cystinotic human fibroblasts (Coriell) was determined by incubating compounds with cells for 60 min at 37° C., 95% (v/v) air/5% (v/v) CO2 in Minimal Essential Media Eagle. Treated cell samples were subsequently harvested, then homogenized to ensure plasma and lysosomal membrane disruption. Protein was removed by acid precipitation and cystine in the supernatant measured using LC-MS/MS and HILIC chromatography. Protein levels were determined and cystine levels reported as nM per mg/ml protein. Cystine levels after test compound treatment were expressed as a percentage of that of untreated control cells.
Compounds were assayed at a concentration of 50 μM or 100 μM according to the general methods described above.
Cystine depletion levels for the compounds are expressed in Table 4 as a percent relative to the cystine depletion achieved by cysteamine (c.f. cysteamine 100%) at a similar concentration.
Cystine depletion levels for each of the compounds in Table 5 are expressed as a percent relative to the cystine depletion achieved by cysteamine (c.f. cysteamine 100%) at a similar concentration.

[5] = Table 4, read-out: Cystine Depletion (%)
[6] = Table 5, read-out: Cystine Depletion (%) Mean Value

| ADO Metabolism Assay (%) Mean Value ([2]; human, 15 mM) | Structure (SMILES) | viability at 10 µM [1] [%] | viability at 100 µM [1] [%] | Cystine Reactivity Assay (30° C.) (%) Mean Value ([3]; Table 4) | Emax [4, 5] [%] | Cystine Reactivity Assay (30° C.) (%) Mean Value ([3]; Table 5) | Emax [4, 6] [%] | further results |
| --- | --- | --- | --- | --- | --- | --- | --- | --- |
| <25% | CCOC(=O)C1(S)CCCNC1 (centres unmarked) [Compound 42493] | 6 ± 10 | 87 ± 10 | 50-90% | 74 |  |  |  |
| <25% | S[C@@H]1CCNC1 [Compound 42617] | 7 ± 10 | 89 ± 7 | 59-90% | 101 |  |  |  |
| <25% | OCCC1(S)CNC1 [Compound 145695] | 8 ± 10 | 74 ± 10 |  |  | >90% | 0 |  |
| <25% | SC[C@H]1CCCN1 [Compound 42211] | 2 ± 9 | 84 ± 19 | >90% | 79 |  |  |  |
| <25% | SC[C@H]1CCCCN1 [Compound 145590] | 14 ± 7 | 90 ± 11 |  |  | >90% | 104 |  |
| <25% | N[C@H]1C[C@@H](CS)C1 [Compound 145587] | 52 ± 9 | 97 ± 7 |  |  | >90% | 13 |  |
| <25% | CC1(S)CCCNC1 (centres unmarked) [Compound 42388] | 5 ± 6 | 91 ± 5 | >90% | 97 | >90% | 63 |  |
| <25% | C[C@H]1CNCC[C@@H]1S [Compound 42614] | 2 ± 6 | 59 ± 12 |  | 117 |  |  |  |
| <25% | SCC1CCCNC1 (centres unmarked) [Compound 145588] | 9 ± 9 | 98 ± 5 |  |  | >90% | 31 |  |
|  | O=S(=O)([O-])CCS.[Na+] [Compound 145566] |  |  |  |  | <50% | 16 | ADO Metabolism Assay (%) Mean Value ([2]; Table 5, relative to 15 mM cysteamine): <25% |
| <25% | CS(=O)(=O)N1CCNC(CS)C1 (centres unmarked) [Compound 145694] | 2 ± 10 | 15 ± 15 |  |  | >90% | 0 |  |
| <25% | S[C@H]1CCCNC1 [Compound 42247] | 5 ± 8 | 84 ± 13 | >90% | 96 |  |  |  |
| <25% | OC1(CS)CCNCC1 [Compound 145610] | 11 ± 8 | 87 ± 10 |  |  | <50% | 11 |  |
| <25% | CCN1CCCC1 [Compound 145611] | 24 ± 13 | 94 ± 8 |  |  | <50% | 9 |  |
| <25% | SC1CCCNC1 (centres unmarked) [Compound 42208] |  |  | >90% | 102 |  |  |  |
| <25% | OCC1(S)CCCNC1 (centres unmarked) [Compound 150730] |  |  |  |  | >90% | 14 |  |
| <25% | SCC1COCCN1 (centres unmarked) [Compound 145591] |  |  |  |  | 50-90% | 61 |  |

| ADO Metabolism Assay (%) Mean Value ([2]; human, 15 mM) | Structure (SMILES) | viability at 10 µM [1] [%] | viability at 100 µM [1] [%] | Cystine Reactivity Assay (30° C.) (%) Mean Value ([3]; Table 4) | Emax [4, 5] [%] | Cystine Reactivity Assay (30° C.) (%) Mean Value ([3]; Table 5) | Emax [4, 6] [%] | further results |
| --- | --- | --- | --- | --- | --- | --- | --- | --- |
| <25% | CCN(CC)C(=S)SSC(=S)N(CC)CC [Compound 981] |  |  |  |  | <50% | 25 |  |
| <25% | NC1CC(S)C1 (centres unmarked) [Compound 42209] |  |  | 59-90% | 99 |  |  |  |
|  | C[C@H](CS)C(=O)N1CCC[C@H]1C(=O)O [Compound 653] |  |  |  |  | <50% | 23 | ADO Metabolism Assay (%) Mean Value ([2]; human): <25% |
| <25% | Cn1cc[nH]c1=S [Compound 1176] |  |  |  |  | <50% | 10 |  |
| <25% | S[C@@H]1CCCNC1 [Compound 42248] | 2 ± 7 | 81 ± 6 | >90% | 103 |  |  |  |
| <25% | SC1CCCCNC1 (centres unmarked) [Compound 42345] |  |  | >90% | 50 |  |  |  |
| >75% | SCc1ccccn1 [Compound 42213] |  |  | >90% | 0 |  |  |  |
| <25% | CNC1CC(S)C1 (centres unmarked) [Compound 149608] |  |  |  |  | <50% | 55 |  |
| <25% | S[C@H]1CCNC1 [Compound 42616] | 5 ± 7 | 56 ± 7 | 59-90% | 79 |  |  |  |
|  | CC(C)(S)CN [Compound 3a] |  |  |  |  |  |  | metabolism by ADO compared to cysteamine (in words) [2]: significantly reduced metabolism by ADO compared to cysteamine; ADO metabolism ([2]; human, 15 mM): 14%; Cystine Reactivity ([3]; Tables 1-3): 2284; cystine depletion levels (in words) ([4]; compared to cysteamine): slightly decreased; Cystine depletion ([4]; compound at 50 μM or 100 μM, Tables 1-3): 32% |
| 25-75% | NCCCNCCS [Compound 145564] |  |  |  |  | >90% | 36 |  |
| <25% | C[C@@H]1CNCC[C@@H]1S [Compound 42615] |  |  | <50% | 106 |  |  |  |
| <25% | CC(C)(C)N1CCC(S)CC1 [Compound 145584] |  |  |  |  | >90% | 0 |  |
| <25% | N[C@H]1C[C@@H](S)C1 [Compound 42457] | 6 ± 5 | 91 ± 6 | 59-90% | 108 | 50-90% | 77 |  |
| <25% | CC(CS)Cc1ccccc1 (centres unmarked) [Compound 2403] |  |  |  |  | <50% | 19 |  |
| <25% | SCC1CCNCC1 [Compound 145586] | 9 ± 6 | 89 ± 9 |  |  | 50-90% | 21 |  |
| <25% | C[C@H]1CC[C@H](S)CN1 [Compound 42613] |  |  | >90% | 109 |  |  |  |

| Structure (SMILES) | ADO Metabolism Assay (%) Mean Value ([2]; human, 15 mM) | viability at 10 µM [1] [%] | viability at 100 µM [1] [%] | Cystine Reactivity Assay (30° C.) (%) Mean Value ([3]; Table 4) | Emax [4, 5] [%] | Cystine Reactivity Assay (30° C.) (%) Mean Value ([3]; Table 5) | Emax [4, 6] [%] | further results |
| --- | --- | --- | --- | --- | --- | --- | --- | --- |
| SC1CC2CCC(C1)N2 (centres unmarked) [Compound 42494] | <25% | 0 | 28 ± 17 | 59-90% | 88 |  |  |  |
